Results from the supplement of paper PMC4862054.

Legend:
Conditions in all cases: incubation time: 72 h
[1] = tested on: Hs578T; assay: normalised viability (% of control), CellTiter-Blue; higher = more viable cells (about 100 = DMSO control)
Method in brief: (§1)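 Normalised viability is given for a single listed concentration of the series. In 384-well plates, breast cancer cell lines were incubated 72 h with compound, then read with CellTiter-Blue (2 h, 37 °C) at 560/590 nm. Per-plate scaling set vehicle to 100 and a positive kill control to 0, with Z'-factor quality control.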

[2] = tested on: MDA-MB-231; assay: as above
Method in brief: as §1

[3] = tested on: HCC1937; assay: as above
Method in brief: as §1

[4] = tested on: HDQ-P1; assay: as above
Method in brief: as §1

[5] = tested on: MDA-MB-436; assay: as above
Method in brief: as §1

[6] = tested on: CAL-120; assay: as above
Method in brief: as §1

[7] = tested on: CAL-148; assay: as above
Method in brief: as §1

[8] = tested on: HCC1599; assay: as above
Method in brief: as §1

[9] = tested on: MDA-MB-468; assay: as above
Method in brief: as §1

[10] = tested on: HCC1143; assay: as above
Method in brief: as §1

[11] = tested on: CAL-85-1; assay: as above
Method in brief: as §1

[12] = tested on: MDA-MB-231; assay: drug sensitivity score (DSS), CellTiter-Blue viability (DSS (AUC-based score)); higher = stronger viability inhibition; extreme values may be limits of the assay
Protocol: (§2)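 DSRT with the CellTiter-Blue (resazurin reduction) viability readout, fluorescence 560/590 nm, 72 h incubation. Plates were normalised to DMSO and benzethonium chloride controls. DSS is computed from the area under the fitted dose-response curve (5 or 9 concentrations).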

[13] = tested on: CAL-51; assay: as above
Protocol: as §2

[14] = tested on: HCC1937; assay: as above
Protocol: as §2

[15] = tested on: MFM-223; assay: as above
Protocol: as §2

[16] = tested on: CAL-120; assay: as above
Protocol: as §2

[17] = tested on: CAL-148; assay: as above
Protocol: as §2

[18] = tested on: HCC1599; assay: as above
Protocol: as §2

[19] = tested on: MDA-MB-468; assay: as above
Protocol: as §2

[20] = tested on: BT-474; assay: as above
Protocol: as §2

[21] = tested on: BT-549; assay: as above
Protocol: as §2

[22] = tested on: DU-4475; assay: as above
Protocol: as §2

[23] = tested on: MDA-MB-453; assay: as above
Protocol: as §2

[24] = tested on: HCC1143; assay: as above
Protocol: as §2

[25] = tested on: CAL-85-1; assay: as above
Protocol: as §2

COc1cc(OC2CCN(C)CC2)ccc1Nc1ncc2c(n1)n(C1CCCC1)c(=O)n2C [AZ 3146]
normalised viability [%]
Conditions | 3 nM | 10 nM | 30 nM | 100 nM | 1000 nM | 10000 nM
[1] | – | 111 | – | – | 109 | 80.1
[2] | – | 96.5 | – | – | 82.3 | 45.8
[3] | – | 124 | – | – | 98 | 92
[4] | 80.8 | – | 100 | 118 | – | –
[5] | – | 102 | – | – | 94.4 | 85.6
[6] | – | 115 | – | – | 109 | 76.5
[7] | 111 | – | 102 | 115 | – | –
[8] | – | 107 | – | – | 121 | 111
[9] | – | 109 | – | – | 103 | 53.3
[10] | – | 132 | – | – | 126 | 95.3
[11] | 111 | – | 109 | 102 | – | –

Conditions | drug sensitivity score
[12] | 3.65
[13] | 8.18
[14] | 0
[15] | 0
[16] | 0.478
[17] | 4.7
[18] | 0
[19] | 0
[20] | 0
[21] | 0
[22] | 1.56
[23] | 3.31
[24] | 0
[25] | 1.25

O=C(Nc1cccnc1)N1CCC(Cc2cccc(Oc3ccc(C(F)(F)F)cn3)c2)CC1 [PF-3845]
normalised viability [%]
Conditions | 3 nM | 10 nM | 30 nM | 100 nM | 1000 nM | 10000 nM
[1] | – | 116 | – | – | 94.3 | 79.1
[2] | – | 106 | – | – | 115 | 127
[3] | – | 122 | – | – | 108 | 97.2
[4] | 129 | – | 115 | 113 | – | –
[5] | – | 98.1 | – | – | 116 | 101
[6] | – | 99.1 | – | – | 105 | 120
[7] | 91 | – | 85.3 | 97.9 | – | –
[8] | – | 95.1 | – | – | 114 | 76.6
[9] | – | 106 | – | – | 117 | 62.8
[10] | – | 84.3 | – | – | 88.5 | 89.5
[11] | 89.6 | – | 89.5 | 87.1 | – | –

Conditions | drug sensitivity score
[12] | 0
[13] | 0.908
[14] | 0
[15] | 0
[16] | 0
[17] | 0
[18] | 0
[19] | 0.694
[20] | 1.39
[21] | 4.79
[22] | 0
[23] | 4.35
[24] | 0
[25] | 0

CO[C@H]1C[C@@H]2CC[C@@H](C)[C@@](O)(O2)C(=O)C(=O)N2CCCC[C@H]2C(=O)O[C@H]([C@H](C)C[C@@H]2CC[C@@H](OP(C)(C)=O)[C@H](OC)C2)CC(=O)[C@H](C)/C=C(\C)[C@@H](O)[C@@H](OC)C(=O)[C@H](C)C[C@H](C)/C=C/C=C/C=C/1C [Ridaforolimus]
normalised viability [%]
Conditions | 0.3 nM | 1 nM | 3 nM | 10 nM | 100 nM | 1000 nM
[1] | – | 62.9 | – | – | 57.2 | 54.3
[2] | – | 86.4 | – | – | 81.8 | 70.4
[3] | – | 52.4 | – | – | 62.5 | 69.5
[4] | 96.2 | – | 90.1 | 74.4 | – | –
[5] | – | 81.3 | – | – | 94.5 | 79
[6] | – | 70 | – | – | 50 | 46.9
[7] | 79.9 | – | 43.8 | 36.6 | – | –
[8] | – | 105 | – | – | 98.7 | 72.5
[9] | – | 66.4 | – | – | 59.3 | 60.4
[10] | – | 71.5 | – | – | 56.1 | 56.8
[11] | 68 | – | 57.1 | 59.5 | – | –

Conditions | drug sensitivity score
[12] | 2.74
[13] | 22
[14] | 17.2
[15] | 22.1
[16] | 19.1
[17] | 25
[18] | 0
[19] | 16.7
[20] | 14.5
[21] | 17.6
[22] | 16.7
[23] | 29.9
[24] | 16.3
[25] | 16

Nc1cc(C(F)(F)F)c(-c2cc(N3CCOCC3)nc(N3CCOCC3)n2)cn1 [BKM-120]
normalised viability [%]
Conditions | 3 nM | 10 nM | 30 nM | 100 nM | 1000 nM | 10000 nM
[1] | – | 114 | – | – | 88.7 | 9.62
[2] | – | 94.2 | – | – | 69.1 | 15.3
[3] | – | 121 | – | – | 87.9 | 13.7
[4] | 97.8 | – | 107 | 97.7 | – | –
[5] | – | 82.4 | – | – | 93.8 | 16.5
[6] | – | 81.1 | – | – | 54.5 | 13.5
[7] | 94.3 | – | 104 | 98.7 | – | –
[8] | – | 92.8 | – | – | 63.6 | 32.7
[9] | – | 97.7 | – | – | 78.7 | 15.3
[10] | – | 81.4 | – | – | 72.8 | 20.8
[11] | 95.8 | – | 80.2 | 92 | – | –

Conditions | drug sensitivity score
[12] | 8.24
[13] | 11.6
[14] | 6.85
[15] | 9.9
[16] | 8.37
[17] | 8.55
[18] | 8.97
[19] | 6.64
[20] | 9.72
[21] | 8.93
[22] | 6.63
[23] | 13.8
[24] | 5.44
[25] | 9.38

Oc1ccc2c(c1)CC[C@H](c1ccccc1)[C@@H]2c1ccc(OCCN2CCCC2)cc1 [Lasofoxifene]
normalised viability [%]
Conditions | 0.3 nM | 1 nM | 3 nM | 10 nM | 100 nM | 1000 nM
[1] | – | 108 | – | – | 103 | 118
[2] | – | 93.1 | – | – | 95.2 | 95.3
[3] | – | 88.6 | – | – | 109 | 121
[4] | 97.7 | – | 114 | 101 | – | –
[5] | – | 95.5 | – | – | 84.3 | 101
[6] | – | 77.6 | – | – | 87.8 | 95.8
[7] | 95.9 | – | 104 | 102 | – | –
[8] | – | 96 | – | – | 81.4 | 103
[9] | – | 95 | – | – | 95.8 | 94.4
[10] | – | 86 | – | – | 104 | 95.6
[11] | 83.5 | – | 82.5 | 93 | – | –

Conditions | drug sensitivity score
[12] | 0
[13] | 0
[14] | 0
[15] | 0
[16] | 0
[17] | 0
[18] | 0
[19] | 0
[20] | 0
[21] | 0
[22] | 0
[23] | 0
[24] | 0
[25] | 0
